Experimental data taken from patent US9221781B2, “Synthesis of polyhydroxy chromenone compounds and their anti-tumor effects” (BEIJING SHENOGEN PHARMA GROUP LTD., priority 2012, dated 2015).
pIC50: −log10 of the molar value.

How the values were obtained:
BEL-7402 cells = assay: Inhibition of liver cancer cell BEL-7402 in vitro by SRB; assay type: cell-based; conditions: Homo sapiens, 10^−6M, 72 hours, read-out: The inhibition percentage of cell proliferation by the compounds with a concentration of 10^−6M, BEL-7402 cells
Procedure: A: Inhibition of Liver Cancer Cell BEL-7402 In Vitro by the Compounds Detected by SRB
The liver cancer BEL-7402 cells from ATCC were maintained in DMDM, 10% NCS and 50 μg/ml KANA at 37° C. in a 5% CO2 atmosphere, and were subseeded in a 96-well culture plate at a concentration of 6×10^3 cells/well. BEL-7402 cells were treated with a test compound dissolved in DMSO at the concentration of 0, 10^−4M, 10^−5M, 10^−6M, 10^−7M, 10^−8M for 72 hours. OD value was tested by SRB method, and the inhibition percentage was calculated.

HL-60 cells = assay: Inhibition of growth of acute myeloblastic leukemia HL-60 cells by MTT method; assay type: cell-based, human; conditions: Homo sapiens, 10^−6M, 72 hours, read-out: The inhibition percentage of cell proliferation by the compounds with a concentration of 10^−6M, HL-60 cells
Procedure: A: Inhibition of Growth of Acute Myeloblastic Leukemia HL-60 Cells by the Compounds Detected by MTT Method
(§1) The acute myeloblastic leukemia HL-60 cells from ATCC were maintained in IMDM and 10% fetal calf serum at 37° C. in a 5% CO2 atmosphere. The cells were subseeded in a 96-well culture plate at a concentration of 6×10^3 cells/well. HL-60 cells were treated with a test compound dissolved in DMSO at the concentration of 0, 10^−4M, 10^−5M, 10^−6M, 10^−7M, 10^−8M for 72 hours. OD value was tested by MTT method, and the inhibition ratio was calculated.

[1] = test system: human endometrial cancer Ishikawa cells xenograft tumor; assay: Inhibition of growth of human endometrial cancer Ishikawa cells xenografts in nude mice; assay type: in vivo; conditions: FIG. 11
Procedure: Nude mice with Human endometrial cancer Ishikawa cells Xenograft Tumor were treated with the test compounds to test their effect on inhibiting tumor growth. Tumor was taken from nude mice with Ishikawa cells and cut into small pieces. Small pieces of tumor were implanted into the armpit under the right front limb of female nude mice. After the implantation, the mice were injected with E2β solution once a day at the dosage of 7 μg per mouse for 6 days to stimulate growth in the expriment mice. […] Medroxyprogesterone acetate was used as a positive control. Mixed oil was used as a negative control. The test compound was dispersed in mixed oil (20 mg/mL). […] Then the mice were sacrificed and the tumor tissues were dissected and weighed. The tumor growth inhibition rate was a percentage calculated using the formula: tumor growth inhibition rate=(average weight of the tumor in the negative control—average weight of the tumor treated with test compound) / average weight of the tumor in the negative control. The result is drawn as bar graph, referring to FIG. 11.

Molt-4 cells = assay: Inhibition of growth of acute lymphoblastic leukemia Molt-4 cells by MTT method; assay type: cell-based; conditions: Homo sapiens, 10^−6M, 72 hours, read-out: The inhibition percentage of cell proliferation by the compounds with a concentration of 10^−6M, Molt-4 cells
Procedure: B: Inhibition of Growth of Acute Lymphoblastic Leukemia Molt-4 Cells by the Compounds Detected by MTT Method
as §1, with “lymphoblastic” for “myeloblastic”, “Molt-4” for “HL-60”, “RPMI-1640” for “IMDM”, “cells/well and maintained RPMI-1640 and 10% fetal calf serum at 37° C. 5%CO2 atmosphere. Molt-4” for “cells/well. HL-60”

[2] = test system: gastric cancer BGC-823 cells; assay: Inhibition of gastric cancer cell BGC-823 in vitro by MTT method; assay type: cell-based; conditions: Homo sapiens; BGC-823, MTT, 72 hours, FIG. 4; read-out: IC50, in vitro inhibition on cell line BGC-823 of gastric cancer
Procedure: A: Inhibition of Gastric Cancer Cell BGC-823 In Vitro by the Compounds by MTT Method
(§2) The gastric cancer BGC-823 cells were subseeded in a 96-well culture plate at a concentration of 3×10^3 cells/well and maintained in phenol red free DMEM medium containing 2.5% CS-FBS at 37° C. in a 5% CO2 atmosphere. BGC-823 cells were treated with a test compound dissolved in DMSO at the concentration of 0, 1, 2, 4, 8, 10 and 20 μM for 72 hours. OD value was tested by MTT method, and the inhibition percentage was calculated.

[3] = test system: human breast cancer BCAP-37 xenograft tumor; assay: Inhibition of growth of human breast cancer BCAP-37 cells xenograft tumor in nude mice; assay type: in vivo; conditions: BCAP-37 tumor bearing nude mice, 0.7 mg/mouse/day, 20 days of continuous administration, FIG. 9
Procedure: Nude mice with breast cancer xenografts were treated with the test compounds to test their effect on inhibiting tumor growth. Tumor tissues were taken from nude mice bearing BCAP-37 breast cancer and cut into small pieces. Several pieces of the tumor tissues were implanted into the armpit under the right front limb of female nude mice. After the implantation, the mice are fed with E2β solution once a day at the dosage of 7 μg per mouse for 6 days to stimulate growth of tumor in the experiment mice. Starting on the seventh day, the mice were intragastric administered with the test solution containing the compounds and corn oil at the dosage of 35 mg/kg. Tamoxifen was used as a positive control. Corn oil was used as a negative control. The test solution was prepared by dispersing test compound in corn oil solution. (20 mg/mL). […] Then the mice were sacrificed and the tumor tissues were dissected and weighed. The tumor growth inhibition rate was a percentage calculated using the formula: tumor growth inhibition rate=(average weight of the tumor in the negative control−average weight of the tumor treated with test compound)/average weight of the tumor in the negative control.

[4] = test system: colon cancer LS174T cells; assay: Inhibition of colon cancer cells LS174T in vitro by MTT method; assay type: cell-based; conditions: Homo sapiens, 72 hours, FIG. 6, read-out: IC50, in vitro inhibition on cell line LS174T of colon carcinoma
Procedure: A: Inhibition of Colon Cancer Cells LS174T In Vitro by the Compounds by MTT Method
as §2, with “colon” for “gastric”, “LS174T” for “BGC-823”, “4.5×10^3” for “3×10^3”, “1640” for “DMEM”

Structure (SMILES): CC(C)=CCc1c(O)cc(O)c2c(=O)c(O)c(-c3ccc(C(F)(F)F)cc3)oc12 [Compound 1, 2-(4-trifluoromethylphenyl)-3,5,7-trihydroxy-8-(3-methyl-2-buten-1-yl)-4H-chromen-4-one]
- inhibition at 1 µM (BEL-7402 cells): 23.7%
- inhibition at 1 µM (HL-60 cells): 60.7%
- average tumor weight, inhibition on tumor growth ([1]; Ishikawa bearing nude mice, 17.5, 35 and 70 mg/kg, 20 days of continuous administration): dominant inhibition on tumor growth
- inhibition effect compared with control drug DMPA ([1]; Ishikawa bearing nude mice, versus DMPA 120 mg/kg, 20 days): higher than control drug
- inhibition at 1 µM (Molt-4 cells): 43.7%
- pIC50 [2]: 5.40 to 6.00
- average tumor weight, inhibition on the tumors [3]: inhibition of compound on the tumors
- pIC50 [4]: 5.40 to 6.00
